Reference: patent EP3431490B1, “CHEMICAL COMPOUNDS FOR USE AS DIAGNOSTIC MARKERS OF INFLAMMATION AND NEOPLAMS, THE METHOD FOR SYNTHESIS OF THE CHEMICAL COMPOUNDS, DIAGNOSTIC KIT FOR USE IN DIAGNOSIS OF INFLAMMATORY PROCESSES AND EPITHELIAL NEOPLASMS AND IN VITRO DIAGNOSTIC METHOD OF INFLAMMATORY PROCESSES AND EPITHELIAL NEOPLASMS” (Uniwersytet Gdanski, priority 2017, dated 2019)

Test system: proteolytic enzymes in combined urine samples of patients (urothelial epithelial neoplasms)
Experiment: Effect of protease inhibitors on hydrolysis of ABZ-Leu-Glu-Pro-Val-ANB-NH2 in combined urine samples of patients
Format: biochemical, human
Conditions: inhibitor concentrations as in Table 1; fig. 3
Method: Proteolytic activity is dependent on the presence of specific compounds called inhibitors (proteolytic enzymes). Their incubation with a given biological material allows us to pre-determine the class of enzymes present in the tested samples. For this purpose, we have added effective inhibitory concentrations of certain classes of proteolytic enzymes to the combined urine samples of the ill persons - patients (urothelial epithelial neoplasms, in particular tumor).

For AHX-VYDnV^P(C4H2Cl)2, which “inhibition of hydrolysis of ABZ-Leu-Glu-Pro-Val-ANB-NH2” value is on record?
Its value is “complete inhibition of hydrolysis”.
